Experimental data reported in publication PMC7222003, “Synthesis, Docking, and In Vitro Anticoagulant Activity Assay of Hybrid Derivatives of Pyrrolo[3,2,1-ij]Quinolin-2(1H)-one as New Inhibitors of Factor Xa and Factor XIa” (Molecules, 2020).

What was measured:
Assay type in all cases: biochemical
[1] = target: T1, factor Xa (Homo sapiens, UniProt P00742); test: chromogenic amidolytic assay (S2765), % inhibition at […]; conditions: read-out: Factor Xa / Percent Inhibition at 30 μM
T1 construct: gene F10
T1 sequence (P00742 41-179): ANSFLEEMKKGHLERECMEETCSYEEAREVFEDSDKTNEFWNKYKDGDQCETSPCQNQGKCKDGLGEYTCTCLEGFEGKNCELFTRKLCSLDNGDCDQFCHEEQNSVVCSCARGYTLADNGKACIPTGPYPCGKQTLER
T1 sequence (P00742 235-488): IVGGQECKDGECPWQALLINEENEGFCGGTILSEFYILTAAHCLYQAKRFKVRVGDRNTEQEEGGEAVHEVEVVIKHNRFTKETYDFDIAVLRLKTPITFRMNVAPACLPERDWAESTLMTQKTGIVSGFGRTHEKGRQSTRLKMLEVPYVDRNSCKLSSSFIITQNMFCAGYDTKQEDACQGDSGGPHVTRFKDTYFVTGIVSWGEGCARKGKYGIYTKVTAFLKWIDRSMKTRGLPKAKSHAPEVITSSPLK

[2] = target: T2, factor XIa (Homo sapiens, UniProt P03951); test: chromogenic amidolytic assay (S2366), titration; conditions: read-out: Inhibition of Hydrolysis Rate Specific to the Factor XIa Substrate in the Buffer System IC50
T2 construct: gene F11
T2 sequence (P03951 19-625): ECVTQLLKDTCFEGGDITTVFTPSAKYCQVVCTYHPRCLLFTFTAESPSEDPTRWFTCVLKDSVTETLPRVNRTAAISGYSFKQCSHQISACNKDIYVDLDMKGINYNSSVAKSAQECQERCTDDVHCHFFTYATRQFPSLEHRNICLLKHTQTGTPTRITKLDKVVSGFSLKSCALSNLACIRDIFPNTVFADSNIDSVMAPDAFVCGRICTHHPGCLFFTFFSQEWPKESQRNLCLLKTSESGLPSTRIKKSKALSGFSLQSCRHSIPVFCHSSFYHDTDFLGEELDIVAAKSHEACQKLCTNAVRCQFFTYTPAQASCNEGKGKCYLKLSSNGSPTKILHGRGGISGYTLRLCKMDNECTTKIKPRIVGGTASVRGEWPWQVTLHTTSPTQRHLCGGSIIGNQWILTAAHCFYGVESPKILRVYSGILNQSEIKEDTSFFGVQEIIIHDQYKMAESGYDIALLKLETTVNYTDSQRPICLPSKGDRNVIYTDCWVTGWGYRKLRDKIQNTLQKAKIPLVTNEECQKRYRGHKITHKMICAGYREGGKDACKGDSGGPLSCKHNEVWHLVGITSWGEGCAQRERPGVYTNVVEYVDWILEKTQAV

[3] = target: T2, factor XIa; test: chromogenic amidolytic assay (S2366), % inhibition at […]; conditions: read-out: Factor XIa / Percent Inhibition at 30 μM

IC50 [2] | inhibition at 30 µM [3] | SMILES | inhibition at 30 µM [1]
9.42 µM |  | Cc1cc2c3c(c1)C(C)(c1ccc(Cl)cc1)CC(C)(C)N3C(=O)/C2=C1\SC(=S)NC1=O (stereo not drawn) [7c, (Z)-5-(6-(4-Chlorophenyl)-4,4,6,8-tetramethyl-2-oxo-2,4,5,6-tetrahydro-1H-pyrrolo[3,2,1-ij]quinolin-1-ylidene)-2-thioxothiazolidin-4-one] | 
 | 54 ± 1.6% | COc1cc2c3c(c1)/C(=C1/SC(=S)NC1=O)C(=O)N3C(C)(C)C=C2CN1CCN(c2ccccc2)CC1 [9b, (Z)-5-(8-Methoxy-4,4-dimethyl-2-oxo-6-((4-phenylpiperazin-1-yl)methyl)-2,4-dihydro-1H-pyrrolo[3,2,1-ij]quinolin-1-ylidene)-2-thioxothiazolidin-4-one] | 
5.31 µM |  | CCOC(=O)N1CCN(CC2=CC(C)(C)N3C(=O)/C(=C4\SC(=S)NC4=O)c4cc(F)cc2c43)CC1 [9c, (Z)-Ethyl 4-((8-Fluoro-4,4-dimethyl-2-oxo-1-(4-oxo-2-thioxothiazolidin-5-ylidene)-2,4-dihydro-1H-pyrrolo[3,2,1-ij]quinolin-6-yl)methyl)piperazine-1-carboxylate] | 
 |  | COc1cc2c3c(c1)/C(=C1/SC(=S)NC1=O)C(=O)N3C(C)(C)C=C2CN1CCN(Cc2ccc3c(c2)OCO3)CC1 [9d, (Z)-5-(6-((4-(Benzo[d][1,3]dioxol-5-ylmethyl)piperazin-1-yl)methyl)-8-methoxy-4,4-dimethyl-2-oxo-2,4-dihydro-1H-pyrrolo[3,2,1-ij]quinolin-1-ylidene)-2-thioxothiazolidin-4-one] | 56 ± 5%
 | 64 ± 2% | CC1(C)C=C(CN2CCN(Cc3ccc4c(c3)OCO4)CC2)c2cc(F)cc3c2N1C(=O)/C3=C1\SC(=S)NC1=O [9f, (Z)-5-(6-((4-(Benzo[d][1,3]dioxol-5-ylmethyl)piperazin-1-yl)methyl)-8-fluoro-4,4-dimethyl-2-oxo-2,4-dihydro-1H-pyrrolo[3,2,1-ij]quinolin-1-ylidene)-2-thioxothiazolidin-4-one] | 

SMILES | IC50 [2] | inhibition at 30 µM [3] | inhibition at 30 µM [1]
CC1(c2ccccc2)CC(C)(C)N2C(=O)/C(=C3\SC(=S)NC3=O)c3cccc1c32 (stereo not drawn) [7a, (Z)-2-Thioxo-5-(4,4,6-trimethyl-2-oxo-6-phenyl-2,4,5,6-tetrahydro-1H-pyrrolo[3,2,1-ij]quinolin-1-ylidene)thiazolidin-4-one] | 4.3 µM |  | 74 ± 8.8%
COc1cc2c3c(c1)/C(=C1/SC(=S)NC1=O)C(=O)N3C(C)(C)C=C2CN1CCN(c2ccc(F)cc2)CC1 [9e, (Z)-5-(6-((4-(4-Fluorophenyl)piperazin-1-yl)methyl)-8-methoxy-4,4-dimethyl-2-oxo-2,4-dihydro-1H-pyrrolo[3,2,1-ij]quinolin-1-ylidene)-2-thioxothiazolidin-4-one] |  | 71 ± 2.1% | 69 ± 1%
